Measured values as given in BindingDB's records for doi:10.1016/j.bmcl.2010.11.016 (Chosun University, 2011).

Assays:
[1] = system: Influenza A H9N2 virus neuraminidase; assay: Inhibition of Influenza A H9N2 virus neuraminidase activity after 2 hrs by spectrofluorometry
[2] = system: wild type H1N1 swine influenza virus neuraminidase; assay: Inhibition of wild type H1N1 swine influenza virus neuraminidase activity expressed in HEK293T cells after 2 hrs by spectrofluorometry

O=C(C=Cc1ccc(O)cc1)c1ccc(O)cc1O
IC50 [1]: 37.8 µM | IC50 [2]: 13.6 µM
